Results reported in patent US20220396565A1 (Hoffmann-La Roche Inc., priority 2020, published 2022).
Counter-ions that a name gives are not always drawn.

Test system: Acinetobacter baumannii ATCC17961
Assay: Antimicrobial susceptibility testing: 90% growth inhibitory concentration (IC90) determination, Iso-Sensitest broth
Type: cell-based
Conditions: Acinetobacter baumannii, ATCC17961, 90% growth inhibitory concentration, Acinetobacter baumannii ATCC17961, Iso-Sensitest broth; read-out: ATCC 17961 IC90
In short: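 Growth at OD600 was monitored every 20 min for 16 h at 35±2 °C, with bacteria inoculated at ~5×10^(5) CFU/ml into Iso-Sensitest medium. Compounds were tested as 10-point twofold dilutions (e.g. 10–0.02 μM final). The 90% inhibitory concentration comes from the log-phase growth.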

| SMILES | IC90 |
| --- | --- |
| COc1ccc(-c2cnc(C(=O)Nc3ccc(C(=O)N4CCC(C(=O)NC[C@H](C)N)CC4)c(Cl)c3)n2C)c(F)c1F [Example 32, N-[(2S)-2-aminopropyl]-1-[2-chloro-4-[[5-(2,3-difluoro-4-methoxy-phenyl)-1-methyl-imidazole-2-carbonyl]amino]benzoyl] piperidine-4-carboxamide] | 80 nM |
| CN(C)c1ccc(-c2cnc(C(=O)Nc3ccc(C(=O)N4CCN(C(=O)C5CCNCC5)CC4)c(Cl)c3)n2C)c(F)c1F [Example 262, N-[3-chloro-4-[4-(piperidine-4-carbonyl)piperazine-1-carbonyl]phenyl]-5-[4-(dimethylamino)-2,3-difluoro-phenyl]-1-methyl-imidazole-2-carboxamide formate] | 70 nM |
| COc1ccc(-c2cnc(C(=O)Nc3ccc(C(=O)N4CCC(C(=O)N[C@H]5CCNC5)CC4)c(Cl)c3)n2C)c(F)c1F [Example 58, 1-[2-chloro-4-[[5-(2,3-difluoro-4-methoxy-phenyl)-1-methyl-imidazole-2-carbonyl]amino]benzoyl]-N-[(3S)-pyrrolidin-3-yl]piperidine-4-carboxamide formate] | 50 nM |
| COc1ccc(-c2cnc(C(=O)Nc3ccc(C(=O)N4CC(NC(=O)CN(C)C)C4)c(Cl)c3)n2C)c(F)c1F [Example 189, N-[3-chloro-4-[3-[[2-(dimethylamino)acetyl]amino]azetidine-1-carbonyl]phenyl]-5-(2,3-difluoro-4-methoxy-phenyl)-1-methyl-imidazole-2-carboxamide formate] | 140 nM |
| COc1ccc(-c2cnc(C(=O)Nc3ccc(C(=O)N4CCN(C(=O)C5CNC5)CC4)c(Cl)c3)n2C)c(F)c1F [Example 165, N-[4-[4-(azetidine-3-carbonyl)piperazine-1-carbonyl]-3-chloro-phenyl]-5-(2,3-difluoro-4-methoxy-phenyl)-1-methyl-imidazole-2-carboxamide formate] | 50 nM |
| COc1ccc(-c2cnc(C(=O)Nc3ccc(C(=O)N4CCN(C(=O)C[C@@H]5CCNC5)CC4)c(Cl)c3)n2C)c(Cl)c1F [Example 167, 5-(2-chloro-3-fluoro-4-methoxy-phenyl)-N-[3-chloro-4-[4-[2-[(3S)-pyrrolidin-3-yl]acetyl]piperazine-1-carbonyl]phenyl]-1-methyl-imidazole-2-carboxamide formate] | 50 nM |
| COc1ccc(-c2cnc(C(=O)Nc3ccc(C(=O)N4CC(OCCN)C4)c(Cl)c3)n2C)c(F)c1F [Example 18, N-[4-[3-(2-aminoethoxy)azetidine-1-carbonyl]-3-chloro-phenyl]-5-(2,3-difluoro-4-methoxy-phenyl)-1-methyl-imidazole-2-carboxamide formate] | 70 nM |
| COc1ccc(-c2cnc(C(=O)Nc3ccc(C(=O)N4CC(C(=O)N5CCNCC5)C4)c(Cl)c3)n2C)c(F)c1F [Example 69, N-[3-chloro-4-[3-(piperazine-1-carbonyl)azetidine-1-carbonyl]phenyl]-5-(2,3-difluoro-4-methoxy-phenyl)-1-methyl-imidazole-2-carboxamide formate] | 120 nM |
| COc1ccc(-c2cnc(C(=O)Nc3ccc(C(=O)N4CCN(C(=O)[C@@H]5CCNC[C@@H]5O)CC4)c(Cl)c3)n2C)c(F)c1F [Example 228, N-[3-chloro-4-[4-[(3R,4R)-3-hydroxypiperidine-4-carbonyl]piperazine-1-carbonyl]phenyl]-5-(2,3-difluoro-4-methoxy-phenyl)-1-methyl-imidazole-2-carboxamide] | 180 nM |
| Cn1c(-c2ccc(OCF)c(F)c2F)cnc1C(=O)Nc1ccc(C(=O)N2CCC(C(=O)NC3CCNCC3)CC2)c(Cl)c1 [Example 89, 1-(2-chloro-4-(5-(2,3-difluoro-4-(fluoromethoxy)phenyl)-1-methyl-1H-imidazole-2-carboxamido)benzoyl)-N-(piperidin-4-yl)piperidine-4-carboxamide 2,2,2-trifluoroacetate] | 50 nM |
| CCc1cc(NC(=O)c2ncc(-c3ccc(OC)c(F)c3F)n2C)ccc1C(=O)N1CCC(C(=O)NCCN)CC1 [Example 100, N-(2-aminoethyl)-1-[4-[[5-(2,3-difluoro-4-methoxy-phenyl)-1-methyl-imidazole-2-carbonyl]amino]-2-ethyl-benzoyl]piperidine-4-carboxamide] | 340 nM |
| COc1ccc(-c2cnc(C(=O)Nc3ccc(C(=O)N4CCN(C(=O)CC5CNC5)CC4)c(Cl)c3)n2C)c(F)c1F [Example 145, N-[4-[4-[2-(azetidin-3-yl)acetyl]piperazine-1-carbonyl]-3-chloro-phenyl]-5-(2,3-difluoro-4-methoxy-phenyl)-1-methyl-imidazole-2-carboxamide formate] | 40 nM |
| Cn1c(-c2ccc(OCF)c(Cl)c2F)cnc1C(=O)Nc1ccc(C(=O)N2CCN(C(=O)[C@@H]3C[C@@H](O)CN3)CC2)c(Cl)c1 [Example 247, 5-[3-chloro-2-fluoro-4-(fluoromethoxy)phenyl]-N-[3-chloro-4-[4-[(2S,4R)-4-hydroxypyrrolidine-2-carbonyl]piperazine-1-carbonyl]phenyl]-1-methyl-imidazole-2-carboxamide] | 30 nM |
| COc1ccc(-c2cnc(C(=O)Nc3ccc(C(=O)N4CCN(C(=O)C5(O)CCNCC5)CC4)c(C)c3)n2C)c(Cl)c1F [Example 118, 5-(2-chloro-3-fluoro-4-methoxy-phenyl)-N-[4-[4-(4-hydroxypiperidine-4-carbonyl)piperazine-1-carbonyl]-3-methyl-phenyl]-1-methyl-imidazole-2-carboxamide formate] | 140 nM |
| COc1ccc(-c2cnc(C(=O)Nc3ccc(C(=O)N4CCN(C(=O)C5(O)CCNC5)CC4)c(Cl)c3)n2C)c(F)c1F (stereo not shown) [Example 141, N-[3-chloro-4-[4-(3-hydroxypyrrolidine-3-carbonyl)piperazine-1-carbonyl]phenyl]-5-(2,3-difluoro-4-methoxy-phenyl)-1-methyl-imidazole-2-carboxamide formate] | 60 nM |
| Cn1c(-c2ccc(OCC#N)c(F)c2F)cnc1C(=O)Nc1ccc(C(=O)N2CCN(C(=O)[C@@H]3CCNC[C@H]3O)CC2)c(Cl)c1 [Example 227, N-(3-chloro-4-(4-((3S,4R)-3-hydroxypiperidine-4-carbonyl)piperazine-1-carbonyl)phenyl)-5-(4-(cyanomethoxy)-2,3-difluorophenyl)-1-methyl 1H-imidazole-2-carboxamide (S)-2-hydroxypropanoate] | 90 nM |
| COc1ccc(-c2cnc(C(=O)Nc3ccc(C(=O)N4CCN(C(=O)CC5CCC(=O)N5)CC4)c(Cl)c3)n2C)c(F)c1F (stereo not shown) [Example 127, N-[3-chloro-4-[4-[2-(5-oxopyrrolidin-2-yl)acetyl]piperazine-1-carbonyl]phenyl]-5-(2,3-difluoro-4-methoxy-phenyl)-1-methyl-imidazole-2-carboxamide] | 100 nM |

Same assay, conditions: Acinetobacter baumannii, ATCC17961, read-out: ATCC 17961 IC90

| SMILES | IC90 |
| --- | --- |
| Cn1c(-c2ccc(OCC#N)c(F)c2F)cnc1C(=O)Nc1ccc(C(=O)N2CCN(C(=O)NCCN)CC2)c(Cl)c1 [Example 281, N-(2-Aminoethyl)-4-(2-chloro-4-(5-(4-(cyanomethoxy)-2,3-difluorophenyl)-1-methyl-1H-imidazole-2-carboxamido)benzoyl)piperazine-1-carboxamide 2,2,2-trifluoroacetate] | 60 nM |
| Cn1c(-c2ccc(OCF)c(F)c2F)cnc1C(=O)Nc1ccc(C(=O)N2CCN(C(=O)C3CNCC(O)C3)CC2)c(Cl)c1 (stereo not shown) [Example 171, formate] | 50 nM |
